Data as given in ChEMBL document CHEMBL1201862, “PubChem BioAssay data set” (2004).
Active and inactive are the calls of the source.

How the values were obtained:
[1] = test system: Jurkat; assay: blockers of NF-kB activation in T cells – Jurkat, luciferase reporter, luminescence, B- and T-cell, dose response (AID 489004); type: functional, cell-based; settings: Homo sapiens;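 also: NF-kB luciferase reporter Jurkat cells stimulated with PMA plus ionomycin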
[2] = HEK-293T viability loss, compound-treated – cell-based, uHTS hits, cytotoxicity control for B/T-cell NF-kB inhibitor project, dose response (AID 489019); type: functional;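 also: IC50 reflects cytotoxicity as loss of cell viability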
[3] = test system: INS1; assay: INS-1E survival protection against cytokine death – cell-based, luminescence, retest, dose response (AID 449756); type: functional; settings: Rattus norvegicus;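 also: cell death triggered by IL-1 beta plus TNF-alpha plus IFN-gamma mixture; protective hits raise ATP signal compared with cytokine alone wells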
[4] = molecular target: T1, CAAX prenyl protease 2 (Saccharomyces cerevisiae S288c, UniProt Q03530); type: biochemical
T1 sequence (Q03530 whole entry): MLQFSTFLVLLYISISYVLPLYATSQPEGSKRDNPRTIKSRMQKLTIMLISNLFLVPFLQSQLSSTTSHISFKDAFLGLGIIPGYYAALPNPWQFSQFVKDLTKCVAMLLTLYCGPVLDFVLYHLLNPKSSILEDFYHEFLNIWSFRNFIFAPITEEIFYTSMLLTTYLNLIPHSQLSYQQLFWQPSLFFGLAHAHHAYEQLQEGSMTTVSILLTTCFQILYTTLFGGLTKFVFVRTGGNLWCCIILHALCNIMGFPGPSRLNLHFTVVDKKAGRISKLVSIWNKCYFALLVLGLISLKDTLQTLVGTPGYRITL

[5] = molecular target: CAAX prenyl protease 1 (Saccharomyces cerevisiae S288c, UniProt P47154); assay: yeast CAAX protease Ste24 inhibition – biochemical, S. cerevisiae, plate reader, cherry-pick, dose response (AID 488815)
Chain of CAAX prenyl protease 1 (P47154 whole entry): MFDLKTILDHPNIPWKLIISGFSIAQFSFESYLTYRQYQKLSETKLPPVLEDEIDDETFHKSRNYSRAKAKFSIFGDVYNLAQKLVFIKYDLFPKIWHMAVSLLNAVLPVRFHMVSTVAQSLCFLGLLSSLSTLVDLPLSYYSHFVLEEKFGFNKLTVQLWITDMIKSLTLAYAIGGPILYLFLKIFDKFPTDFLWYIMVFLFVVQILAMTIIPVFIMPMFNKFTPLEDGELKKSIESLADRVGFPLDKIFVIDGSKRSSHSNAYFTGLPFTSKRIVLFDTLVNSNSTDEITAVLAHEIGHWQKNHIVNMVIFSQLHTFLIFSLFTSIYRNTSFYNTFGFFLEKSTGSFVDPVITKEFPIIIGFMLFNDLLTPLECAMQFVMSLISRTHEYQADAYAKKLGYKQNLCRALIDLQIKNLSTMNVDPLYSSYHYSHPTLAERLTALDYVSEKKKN

[6] = molecular target: CAAX prenyl protease 2 (Homo sapiens, UniProt Q9Y256); assay: inhibition of Ras-converting CAAX protease Rce1 – biochemical, yeast membranes, quenched-peptide fluorescence, cherry-pick, dose response (AID 588849)
Chain of CAAX prenyl protease 2 (Homo sapiens, UniProt Q9Y256) (Q9Y256 whole entry): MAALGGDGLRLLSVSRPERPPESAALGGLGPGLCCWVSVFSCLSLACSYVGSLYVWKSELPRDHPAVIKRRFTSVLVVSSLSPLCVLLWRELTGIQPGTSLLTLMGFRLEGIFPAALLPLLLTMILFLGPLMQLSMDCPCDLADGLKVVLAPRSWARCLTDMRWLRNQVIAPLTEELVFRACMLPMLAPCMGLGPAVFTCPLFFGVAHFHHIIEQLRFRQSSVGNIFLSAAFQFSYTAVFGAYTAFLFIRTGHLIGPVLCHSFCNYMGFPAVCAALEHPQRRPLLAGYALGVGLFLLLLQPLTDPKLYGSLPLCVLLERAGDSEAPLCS

[7] = molecular target: T2, Tyrosine-protein phosphatase non-receptor type 7 (Homo sapiens, UniProt P35236); type: functional
T2 sequence (P35236 whole entry): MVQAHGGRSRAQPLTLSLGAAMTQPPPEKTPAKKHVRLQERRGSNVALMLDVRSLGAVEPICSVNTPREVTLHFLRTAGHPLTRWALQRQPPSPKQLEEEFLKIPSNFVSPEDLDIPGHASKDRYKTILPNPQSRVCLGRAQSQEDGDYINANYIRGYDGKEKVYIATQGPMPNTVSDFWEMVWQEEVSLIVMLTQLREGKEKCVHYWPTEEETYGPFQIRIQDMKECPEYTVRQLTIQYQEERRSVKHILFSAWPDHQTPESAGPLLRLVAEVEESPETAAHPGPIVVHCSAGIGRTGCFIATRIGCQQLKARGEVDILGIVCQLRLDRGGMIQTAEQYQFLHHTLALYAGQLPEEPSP

[8] = molecular target: Glyceraldehyde-3-phosphate dehydrogenase (Homo sapiens, UniProt P04406)
Chain of Glyceraldehyde-3-phosphate dehydrogenase (P04406 whole entry): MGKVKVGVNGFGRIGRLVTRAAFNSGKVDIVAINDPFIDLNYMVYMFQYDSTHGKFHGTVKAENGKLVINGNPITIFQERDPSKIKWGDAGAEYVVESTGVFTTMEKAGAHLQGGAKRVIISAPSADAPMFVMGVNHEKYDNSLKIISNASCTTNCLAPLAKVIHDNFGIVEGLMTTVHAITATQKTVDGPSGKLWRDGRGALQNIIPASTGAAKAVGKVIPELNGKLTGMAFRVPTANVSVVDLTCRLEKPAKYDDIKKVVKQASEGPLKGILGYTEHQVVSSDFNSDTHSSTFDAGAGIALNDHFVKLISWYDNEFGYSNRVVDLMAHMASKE

[9] = molecular target: T3, Dual specificity protein phosphatase 6 (Rattus norvegicus, UniProt Q64346)
T3 sequence (Q64346 whole entry): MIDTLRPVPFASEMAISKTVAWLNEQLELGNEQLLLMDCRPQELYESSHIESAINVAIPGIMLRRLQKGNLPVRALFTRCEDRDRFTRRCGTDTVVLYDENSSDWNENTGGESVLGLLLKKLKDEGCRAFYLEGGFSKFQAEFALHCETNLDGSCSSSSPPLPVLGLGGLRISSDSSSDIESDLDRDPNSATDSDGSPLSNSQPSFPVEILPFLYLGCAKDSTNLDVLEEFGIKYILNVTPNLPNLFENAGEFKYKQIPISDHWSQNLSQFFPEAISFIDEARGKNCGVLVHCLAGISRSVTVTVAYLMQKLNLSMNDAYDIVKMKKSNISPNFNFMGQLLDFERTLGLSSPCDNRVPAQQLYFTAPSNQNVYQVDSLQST

[10] = molecular target: T3, Dual specificity protein phosphatase 6; type: functional
[11] = molecular target: T4, Short transient receptor potential channel 4 (Mus musculus, UniProt Q9QUQ5); assay: block of DAMGO-driven TRPC4 calcium entry – cell-based, HEK293 TRPC4/mu-opioid, Fluo-4 calcium, dose response (AID 434942); type: functional;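 also: potency of inhibitors blocking the TRPC4 calcium response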
T4 sequence (Q9QUQ5 whole entry): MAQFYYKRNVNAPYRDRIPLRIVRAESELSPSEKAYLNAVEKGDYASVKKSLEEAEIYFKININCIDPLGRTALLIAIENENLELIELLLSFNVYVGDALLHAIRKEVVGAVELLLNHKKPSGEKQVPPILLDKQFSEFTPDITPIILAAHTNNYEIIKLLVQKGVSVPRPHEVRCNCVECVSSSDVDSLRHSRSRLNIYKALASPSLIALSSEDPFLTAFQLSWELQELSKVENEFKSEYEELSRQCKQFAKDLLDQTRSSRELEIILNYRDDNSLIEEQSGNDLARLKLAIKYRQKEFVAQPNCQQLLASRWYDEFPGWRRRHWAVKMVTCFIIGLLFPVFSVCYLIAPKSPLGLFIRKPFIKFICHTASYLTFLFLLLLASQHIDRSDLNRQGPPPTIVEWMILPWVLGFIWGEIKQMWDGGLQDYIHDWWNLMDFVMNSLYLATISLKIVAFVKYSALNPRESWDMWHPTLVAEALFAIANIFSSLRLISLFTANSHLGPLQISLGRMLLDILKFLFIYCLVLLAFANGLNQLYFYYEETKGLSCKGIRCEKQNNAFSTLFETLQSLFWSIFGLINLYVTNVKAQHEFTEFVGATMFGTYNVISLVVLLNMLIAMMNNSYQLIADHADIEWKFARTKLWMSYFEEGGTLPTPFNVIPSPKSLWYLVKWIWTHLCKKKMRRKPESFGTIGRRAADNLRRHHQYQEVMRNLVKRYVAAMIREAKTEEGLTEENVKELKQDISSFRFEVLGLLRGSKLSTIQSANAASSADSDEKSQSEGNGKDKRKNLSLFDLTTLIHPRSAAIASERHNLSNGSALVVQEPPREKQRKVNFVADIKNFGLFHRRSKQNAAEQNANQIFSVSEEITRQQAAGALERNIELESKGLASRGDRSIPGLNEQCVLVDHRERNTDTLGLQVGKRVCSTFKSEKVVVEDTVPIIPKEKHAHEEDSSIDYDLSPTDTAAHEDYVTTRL

[12] = molecular target: T4, Short transient receptor potential channel 4; assay: calcium entry via TRPC4 opening agents – cell-based, HEK293 TRPC4/mu-opioid, Fluo-4 calcium, dose response (AID 434937); type: functional
[13] = test system: A-375; assay: MITF: Counter assay: A375 proliferation Measured in Cell-Based System Using Plate Reader - 2084-03_Inhibitor_Dose_DryPowder_Activity. [Related pubchem assays (depositor defined):AID488944]; type: functional; settings: Homo sapiens
[14] = test system: A-375; assay: proliferation inhibition in MITF-low A375 cells – cell-based, cherry-pick samples, set 2, counter-screen for MITF modulator project, dose response (AID 540335); type: functional; settings: Homo sapiens
[15] = T. cruzi infection blockers in NIH3T3 cells – beta-gal luminescence, NIH3T3 host cells, confirmation (AID 2630); type: functional, cell-based; settings: Mus musculus
[16] = molecular target: T5, RNA-binding protein pos-1 (Caenorhabditis elegans, UniProt G5EF15); assay: disruptors of C. elegans POS-1 RNA interaction – biochemical, fluorescence polarization, dose response (AID 1964);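 also: purified POS-1 fused to maltose binding protein made in E. coli; potency of compounds blocking POS-1 binding to fluorescent RNA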
T5 sequence (G5EF15 whole entry): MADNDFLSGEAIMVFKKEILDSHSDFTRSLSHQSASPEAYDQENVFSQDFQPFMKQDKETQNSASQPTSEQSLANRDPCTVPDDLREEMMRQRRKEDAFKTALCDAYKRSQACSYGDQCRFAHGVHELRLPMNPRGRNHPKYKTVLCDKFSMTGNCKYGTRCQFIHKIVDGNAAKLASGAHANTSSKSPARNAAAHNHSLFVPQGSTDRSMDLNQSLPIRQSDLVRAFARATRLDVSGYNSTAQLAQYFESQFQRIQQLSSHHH

[17] = molecular target: T6, Zinc finger protein mex-5 (Caenorhabditis elegans, UniProt Q9XUB2); assay: potency of MEX-5 RNA-binding blockers – biochemical, C. elegans, fluorescence polarization, dose response (AID 1960)
T6 sequence (Q9XUB2 whole entry): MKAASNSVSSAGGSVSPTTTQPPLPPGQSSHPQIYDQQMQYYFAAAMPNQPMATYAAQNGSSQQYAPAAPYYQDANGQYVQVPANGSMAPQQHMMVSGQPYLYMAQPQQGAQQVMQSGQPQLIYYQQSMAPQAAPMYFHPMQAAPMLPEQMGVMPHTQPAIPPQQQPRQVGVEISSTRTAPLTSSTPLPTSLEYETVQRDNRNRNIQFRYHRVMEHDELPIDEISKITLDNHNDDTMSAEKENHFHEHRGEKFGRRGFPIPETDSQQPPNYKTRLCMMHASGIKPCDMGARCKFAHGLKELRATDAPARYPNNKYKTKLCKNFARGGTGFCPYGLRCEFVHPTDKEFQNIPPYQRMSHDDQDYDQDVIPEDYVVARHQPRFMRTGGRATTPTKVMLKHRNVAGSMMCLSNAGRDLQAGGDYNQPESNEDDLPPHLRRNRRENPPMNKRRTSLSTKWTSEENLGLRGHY

[18] = molecular target: T7, Endoribonuclease toxin MazF (Escherichia coli K-12, UniProt P0AE70); assay: activation of MazEF endoribonuclease cleavage – biochemical, fluorescence, single-stranded RNA substrate, uHTS hits, dose response (AID 588481); type: functional
T7 sequence (P0AE70 whole entry): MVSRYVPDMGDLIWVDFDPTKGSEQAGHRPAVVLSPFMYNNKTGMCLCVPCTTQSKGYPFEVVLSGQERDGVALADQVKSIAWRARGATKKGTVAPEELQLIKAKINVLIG

[19] = molecular target: UDP-galactopyranose mutase (Mycobacterium tuberculosis, UniProt P9WIQ1); assay: Inhibitors of Mycobacterium tuberculosis UDP-galactopyranose mutase (UGM) enzyme Measured in Biochemical System Using Plate Reader - 2105-02_Inhibitor_Dose_CherryPick_Activity. [Related pubchem assays (depositor defined):AID504439]
Chain of UDP-galactopyranose mutase (P9WIQ1 whole entry): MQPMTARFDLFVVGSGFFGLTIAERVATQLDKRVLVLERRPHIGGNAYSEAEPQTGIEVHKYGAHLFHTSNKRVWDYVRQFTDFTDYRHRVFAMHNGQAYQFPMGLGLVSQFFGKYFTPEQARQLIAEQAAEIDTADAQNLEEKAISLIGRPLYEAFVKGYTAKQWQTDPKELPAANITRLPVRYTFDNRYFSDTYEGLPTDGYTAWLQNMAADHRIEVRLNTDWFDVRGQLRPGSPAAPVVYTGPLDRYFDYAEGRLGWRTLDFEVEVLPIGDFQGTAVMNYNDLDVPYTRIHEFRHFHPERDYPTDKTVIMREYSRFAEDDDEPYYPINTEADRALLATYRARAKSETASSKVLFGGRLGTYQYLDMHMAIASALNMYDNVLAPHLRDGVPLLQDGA

[20] = molecular target: T7, Endoribonuclease toxin MazF; assay: substrate-only fluorescence increase artefacts – biochemical, single-stranded RNase substrate, counter-screen for MazEF activator project, dose response (AID 588502); type: functional
[21] = molecular target: T8, Corticotropin-releasing factor receptor 2/Corticotropin-releasing factor-binding protein (Homo sapiens, UniProt P24387+Q13324); assay: activators of CRF receptor 2 with binding protein – uHTS hits, confirmation (AID 602473); type: functional; settings: read-out: EC50_Mean
T8 sequence (Q13324 whole entry): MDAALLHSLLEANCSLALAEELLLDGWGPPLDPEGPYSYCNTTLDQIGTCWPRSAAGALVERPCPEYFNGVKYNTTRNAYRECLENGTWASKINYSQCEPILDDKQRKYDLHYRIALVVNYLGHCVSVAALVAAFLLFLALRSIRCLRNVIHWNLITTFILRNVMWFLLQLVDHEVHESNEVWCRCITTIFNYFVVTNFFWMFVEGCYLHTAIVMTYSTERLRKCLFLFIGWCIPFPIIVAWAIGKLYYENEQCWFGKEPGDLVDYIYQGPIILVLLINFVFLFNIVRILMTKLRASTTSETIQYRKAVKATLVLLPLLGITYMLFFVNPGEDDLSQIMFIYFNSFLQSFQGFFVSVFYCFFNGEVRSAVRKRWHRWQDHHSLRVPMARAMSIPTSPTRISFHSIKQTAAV
T8 sequence (P24387 whole entry): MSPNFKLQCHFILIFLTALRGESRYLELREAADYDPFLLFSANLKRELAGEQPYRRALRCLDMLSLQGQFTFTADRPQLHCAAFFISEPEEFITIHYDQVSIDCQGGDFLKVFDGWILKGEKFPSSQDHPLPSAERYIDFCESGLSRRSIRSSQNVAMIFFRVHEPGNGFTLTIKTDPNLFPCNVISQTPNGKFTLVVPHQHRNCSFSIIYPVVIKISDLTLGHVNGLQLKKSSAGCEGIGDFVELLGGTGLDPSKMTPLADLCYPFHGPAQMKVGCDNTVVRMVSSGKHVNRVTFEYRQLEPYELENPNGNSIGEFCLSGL

Cc1cc(Cl)c(S(=O)(=O)N2CCN(c3ccc(F)cc3)CC2)cc1OCC(=O)NC1CCCCC1
IC50 [1]: > 80 µM (inactive)
IC50 [2]: > 80 µM (inactive)
AC50 [3]: 4.82 µM (active)

CCOC(=O)c1[nH]c2ccc(OC)cc2c1NC(=O)CN1CCC2(CC1)OCCO2
AC50 [4]: 67.8 µM (active)
AC50 [5]: 6.79 µM (active)
AC50 [6]: 15.4 µM (active)

Cc1ccc(-n2c(=O)[nH]c(=O)n([C@H](C(N)=O)C(C)C)c2=O)cc1
IC50 [7]: > 100 µM (not active)
IC50 [8]: > 100 µM (not active)
IC50 [9]: > 100 µM (inactive)
IC50 [10]: > 100 µM (inactive)

O=S(=O)(O)c1cc2oc(-c3ccccc3)nc2c2ccccc12
AC50 [6]: 1.35 µM (active)

O=C(C[n+]1cc2ccccc2c2ccccc21)c1ccccc1
EC50 [11]: 3.76 µM (active)
AC50 [4]: 5.91 µM (active)
EC50 [12]: 4.22 µM (active)
AC50 [5]: 10.2 µM (active)

O=C(Nc1ccc(Cl)cc1)OCc1ccccn1
AC50 [13]: > 35 µM (active)
AC50 [14]: > 35 µM (active)

O=C(Nc1ccc2nn(-c3ccccc3)nc2c1)c1ccco1
AC50 [13]: > 35 µM (active)
AC50 [14]: > 35 µM (active)

Cc1ccc(NC(=O)CCC(=O)N/N=C/c2ccco2)c(C)c1
EC50 [15]: 195 µM (inactive)

COc1ccc2nc3ccccc3nc2c1NC(=O)c1ccc(Cl)cc1Cl
EC50 [16]: 3.15 µM (inconclusive)
EC50 [17]: 3.71 µM (inconclusive)
EC50 [18]: > 99 µM (inactive)
AC50 [19]: 171 µM (active)
EC50 [20]: 27.6 µM (inactive)
EC50 [21]: 6.99 µM (active)
